Source: patent publication US11945822B2, “Pyrazolo-triazine and/or pyrazolo-pxrimidine derivatives as selective inhibitor of cyclin dependent kinase” (QURIENT CO., LTD., priority 2018, dated 2024)

Key:
HCT116 = test: Cellular HCT116 viability assay (CellTiter-Glo, 72 hours); assay type: cell-based; settings: Homo sapiens, HCT-116
Procedure, shortened: (§1)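 Steps: seed cells at per-line density; add compound, DMSO vehicle kept under 0.1% final; incubate 72 h, 37 °C, 5% CO2; lyse with CellTiter-Glo and read luminescence; run in duplicate.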

H460 = test: Cellular H460 viability assay (CellTiter-Glo, 72 hours); assay type: cell-based; settings: Homo sapiens, NCI-H460
Procedure, shortened: as §1

MOLT-4 = test: Cellular MOLT-4 viability assay (CellTiter-Glo, 72 hours); assay type: cell-based; settings: Homo sapiens, MOLT4 viability assay
Procedure: (§2) All cell lines were routinely tested for mycoplasma.
(§3) The effect of the CDK7 inhibitor to inhibit the growth of target cancer cells was evaluated through the 72 hours time period of viability assay. Briefly, the candidate cell line ware plated in 96 well plate at the following density of cells respectively. […] DMSO solvent without compound served as a control and final DMSO concentration less than 0.1%. After 72 hours of incubation at 37° C., 5% CO2 incubator, cells were analyzed for the viability using the CellTiter-Glo Luminescent Cell Viability Assay (Promega, Cat #G7570). All viability assays were performed in duplicate and Luminescence was read using an Envision (Perkin Elmer, USA). Data was analyzed using XLfit software.

CDK1/Cyclin B = molecular target: T1, CDK1/Cyclin B (Homo sapiens, UniProt P06493); test: Enzymatic assay for CDK1 (FRET based LANCE Ultra kinase assay); assay type: biochemical; settings: read-out: CDK1 enzymatic activity (IC50 range)
T1 construct: purchased Invitrogen PR4768C
Procedure, shortened: (§4)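 Each CDK complex ([…]) phosphorylated 68 nM ULight-MBP peptide with ATP at Km for 60 min at 23° C., against 8 compound doses (4-fold dilutions). EDTA/Eu-anti-phospho-MBP detection, 60 min, then TR-FRET emission at 615 and 665 nm.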

CDK2/Cyclin A = molecular target: T2, CDK2/Cyclin A (Homo sapiens, UniProt P24941); test: Enzymatic assay for CDK2 (FRET based LANCE Ultra kinase assay); assay type: biochemical; settings: read-out: CDK2 enzymatic activity (IC50 range)
T2 construct: purchased Invitrogen PV6290
Procedure, shortened: as §4

CDK5/p25 = molecular target: T3, CDK5/p25 (Homo sapiens, UniProt Q00535); test: Enzymatic assay for CDK5 (FRET based LANCE Ultra kinase assay); assay type: biochemical; settings: read-out: CDK5 enzymatic activity (IC50 range)
T3 construct: purchased Invitrogen PR8543B
Procedure, shortened: as §4

CDK7/Cyclin H/MNAT1 = molecular target: T4, CDK7/Cyclin H/MNAT1 (Homo sapiens, UniProt P50613); test: Enzymatic assay for CDK7 (FRET based LANCE Ultra kinase assay); assay type: biochemical; settings: for IC50: read-out: CDK7 enzymatic activity (IC50 range)
T4 construct: purchased Invitrogen PR6749B
Procedure, shortened: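 LANCE Ultra TR-FRET kinase assay using a ULight-labeled peptide substrate and a Eu-labeled anti-phospho antibody, with ATP at its Km. Purified CDK/cyclin complex was added to compound after brief centrifugation.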

RPMI-8226 = test: Cellular RPMI-8226 viability assay (CellTiter-Glo, 72 hours); assay type: cell-based; settings: Homo sapiens
Procedure: as §2, §3

MV4-11 = test: Cellular MV4-11 viability assay (CellTiter-Glo, 72 hours); assay type: cell-based; settings: Homo sapiens
Procedure, shortened: as §1

T4 sequence (P50613 whole entry): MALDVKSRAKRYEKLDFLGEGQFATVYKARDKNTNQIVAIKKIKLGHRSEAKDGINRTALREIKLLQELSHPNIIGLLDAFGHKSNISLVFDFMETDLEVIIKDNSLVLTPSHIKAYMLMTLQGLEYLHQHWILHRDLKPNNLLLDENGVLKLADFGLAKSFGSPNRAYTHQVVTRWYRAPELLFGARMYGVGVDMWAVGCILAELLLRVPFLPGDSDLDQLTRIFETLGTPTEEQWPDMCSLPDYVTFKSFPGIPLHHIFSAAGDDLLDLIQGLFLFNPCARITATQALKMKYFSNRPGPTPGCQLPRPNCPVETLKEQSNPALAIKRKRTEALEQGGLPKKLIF
T4 sequence (P51946 whole entry partner): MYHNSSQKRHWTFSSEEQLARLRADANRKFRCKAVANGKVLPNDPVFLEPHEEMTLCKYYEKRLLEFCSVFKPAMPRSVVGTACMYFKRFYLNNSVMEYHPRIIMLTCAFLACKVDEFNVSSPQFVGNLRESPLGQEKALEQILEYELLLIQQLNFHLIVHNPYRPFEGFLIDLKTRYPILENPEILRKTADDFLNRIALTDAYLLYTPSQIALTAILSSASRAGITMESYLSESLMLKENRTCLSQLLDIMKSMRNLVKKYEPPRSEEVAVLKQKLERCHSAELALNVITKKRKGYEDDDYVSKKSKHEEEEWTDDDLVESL
T4 sequence (P51948 whole entry partner): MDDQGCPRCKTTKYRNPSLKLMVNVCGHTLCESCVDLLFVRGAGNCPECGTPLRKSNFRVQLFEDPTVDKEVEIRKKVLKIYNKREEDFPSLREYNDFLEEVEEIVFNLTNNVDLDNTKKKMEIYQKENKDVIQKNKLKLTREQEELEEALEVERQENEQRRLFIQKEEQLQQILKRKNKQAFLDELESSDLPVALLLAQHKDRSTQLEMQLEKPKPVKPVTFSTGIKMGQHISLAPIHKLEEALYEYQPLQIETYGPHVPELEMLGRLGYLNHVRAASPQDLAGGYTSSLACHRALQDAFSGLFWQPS
T1 sequence (P06493 whole entry): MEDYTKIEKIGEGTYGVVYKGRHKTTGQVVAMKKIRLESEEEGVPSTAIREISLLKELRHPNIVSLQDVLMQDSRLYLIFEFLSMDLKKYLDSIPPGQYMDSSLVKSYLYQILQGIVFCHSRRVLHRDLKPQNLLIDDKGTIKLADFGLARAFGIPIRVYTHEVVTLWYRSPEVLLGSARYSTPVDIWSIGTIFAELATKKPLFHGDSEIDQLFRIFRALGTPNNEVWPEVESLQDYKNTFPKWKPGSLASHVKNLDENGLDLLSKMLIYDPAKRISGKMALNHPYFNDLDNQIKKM
T1 sequence (P14635 whole entry partner): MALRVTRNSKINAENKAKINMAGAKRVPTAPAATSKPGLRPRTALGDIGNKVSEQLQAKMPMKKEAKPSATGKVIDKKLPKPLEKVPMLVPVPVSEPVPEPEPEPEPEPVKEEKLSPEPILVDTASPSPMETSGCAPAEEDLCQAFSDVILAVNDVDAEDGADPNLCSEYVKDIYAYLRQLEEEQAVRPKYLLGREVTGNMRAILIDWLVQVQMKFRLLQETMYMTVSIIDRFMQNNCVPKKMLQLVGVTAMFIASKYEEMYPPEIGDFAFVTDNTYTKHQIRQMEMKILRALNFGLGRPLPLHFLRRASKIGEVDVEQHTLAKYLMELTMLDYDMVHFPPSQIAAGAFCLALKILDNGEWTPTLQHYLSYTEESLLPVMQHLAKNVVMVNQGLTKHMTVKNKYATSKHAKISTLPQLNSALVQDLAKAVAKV
T3 sequence (Q00535 whole entry): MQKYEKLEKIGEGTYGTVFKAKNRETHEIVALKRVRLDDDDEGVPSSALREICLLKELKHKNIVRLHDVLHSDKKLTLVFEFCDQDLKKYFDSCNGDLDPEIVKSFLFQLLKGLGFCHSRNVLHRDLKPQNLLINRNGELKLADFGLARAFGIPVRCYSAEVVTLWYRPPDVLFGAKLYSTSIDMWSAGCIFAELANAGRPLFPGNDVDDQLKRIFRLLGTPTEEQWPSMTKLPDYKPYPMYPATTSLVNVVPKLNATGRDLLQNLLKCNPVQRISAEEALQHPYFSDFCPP
T3 sequence (Q15078 99-307 partner limits assumed): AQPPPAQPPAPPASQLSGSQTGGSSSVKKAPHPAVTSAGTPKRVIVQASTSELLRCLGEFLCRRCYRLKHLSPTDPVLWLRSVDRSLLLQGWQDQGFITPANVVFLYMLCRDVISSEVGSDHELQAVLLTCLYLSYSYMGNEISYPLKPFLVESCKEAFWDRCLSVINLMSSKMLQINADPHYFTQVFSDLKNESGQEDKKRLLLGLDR

Structure (SMILES)	IC50 (HCT116) [nM]	IC50 (H460) [nM]	IC50 (MOLT-4) [nM]	IC50 (CDK1/Cyclin B) [nM]	IC50 (CDK2/Cyclin A) [nM]	IC50 (CDK5/p25) [nM]	CDK1/CDK7: Selectivity of CDK7 inhibition over CDK1 inhibition (CDK7/Cyclin H/MNAT1)	CDK2/CDK7: Selectivity of CDK7 inhibition over CDK2 inhibition (CDK7/Cyclin H/MNAT1)	CDK5/CDK7: Selectivity of CDK7 inhibition over CDK5 inhibition (CDK7/Cyclin H/MNAT1)	IC50 (CDK7/Cyclin H/MNAT1) [nM]	IC50 (RPMI-8226) [nM]	IC50 (MV4-11) [nM]
CC(C)c1cnn2c(NCc3ccccc3N(C)C3CCN(C)CC3)nc(N3CCC(N)CC3)nc12 [Compound 53]	1000 to 10000	< 1000	1000 to 10000									
CNC(=O)c1ccccc1CNc1nc(N2CCC(N)CC2)nc2c(C(C)C)cnn12 [Compound 19]				> 1000	100 to 1000	100 to 1000	A (A=greater than 200 fold)	B (B=less than 200 fold, but greater than 20 fold)	B (B=less than 200 fold, but greater than 20 fold)	< 100	< 1000	
CC(C)c1cnn2c(NCc3ccccc3-c3cc4ccccc4[nH]3)nc(N3CCCC(N)C3)nc12 (racemic) [Compound 125]				> 1000	> 1000	> 1000	A (A=greater than 200 fold)	B (B=less than 200 fold, but greater than 20 fold)	B (B=less than 200 fold, but greater than 20 fold)	< 100	1000 to 10000	
CC(C)c1cnn2c(NCc3cccc(Oc4ccccc4)c3)nc(N3CCC(N)CC3)nc12 [Compound 51]	1000 to 10000	1000 to 10000	1000 to 10000	> 1000	> 1000	> 1000	B (B=less than 200 fold, but greater than 20 fold)	B (B=less than 200 fold, but greater than 20 fold)	B (B=less than 200 fold, but greater than 20 fold)	< 100		
CCC(O)c1cnn2c(NCc3ccccc3-n3cccn3)nc(N3CCC(N)CC3)nc12 (racemic) [Compound 52]	> 10000	1000 to 10000	1000 to 10000	> 1000	100 to 1000	100 to 1000	C (C=less than 20 fold)	C (C=less than 20 fold)	C (C=less than 20 fold)	< 100		
CC(C)(C)c1cnn2c(NCc3ccccc3-n3cccn3)nc(N3CCC(N)CC3)nc12 [Compound 24]	< 1000	< 1000	1000 to 10000	100 to 1000	100 to 1000	< 100	B (B=less than 200 fold, but greater than 20 fold)	B (B=less than 200 fold, but greater than 20 fold)	B (B=less than 200 fold, but greater than 20 fold)	< 100		
CC(C)c1cnn2c(NCc3cccc(-n4cccn4)c3)nc(N3CCC(N)CC3)nc12 [Compound 47]	< 1000	< 1000	1000 to 10000	100 to 1000	100 to 1000	< 100	B (B=less than 200 fold, but greater than 20 fold)	B (B=less than 200 fold, but greater than 20 fold)	C (C=less than 20 fold)	< 100		
CC(C)c1cnn2c(NCc3ccccc3-n3cccn3)nc(-c3ccc(C(=O)N4CCC(N)CC4)cc3)nc12 [Compound 172]	1000 to 10000	1000 to 10000	1000 to 10000	> 1000	100 to 1000	100 to 1000	A (A=greater than 200 fold)	B (B=less than 200 fold, but greater than 20 fold)	B (B=less than 200 fold, but greater than 20 fold)	< 100		
CC(C)c1cnn2c(NCc3cccc(NC(=O)c4ccccc4)c3)nc(N3CCC(N)CC3)nc12 [Compound 50]	1000 to 10000	< 1000	1000 to 10000									
CC(C)c1cnn2c(NCc3ccccc3NC(=O)c3cccc(NC(=O)CCCN(C)C)c3)nc(N3CCC(N)CC3)nc12 [Compound 89]	1000 to 10000		1000 to 10000	> 1000	> 1000	100 to 1000	A (A=greater than 200 fold)	A (A=greater than 200 fold)	B (B=less than 200 fold, but greater than 20 fold)	< 100		< 1000
CC(C)c1cnn2c(NCc3ccccc3NC3CCN(C)CC3)nc(N3CCC(N)CC3)nc12 [Compound 49]	1000 to 10000	1000 to 10000	1000 to 10000									
CC(C)c1cnn2c(NCc3ccsc3-n3cccn3)nc(N3CCC(N)CC3)nc12 [Compound 62]		< 1000	1000 to 10000	100 to 1000	100 to 1000	< 100	B (B=less than 200 fold, but greater than 20 fold)	B (B=less than 200 fold, but greater than 20 fold)	C (C=less than 20 fold)	< 100		
CC(=O)N(C)c1ccccc1CNc1nc(N2CCC(N)CC2)nc2c(C(C)C)cnn12 [Compound 64]		< 1000	> 10000	> 1000	> 1000	100 to 1000	A (A=greater than 200 fold)	A (A=greater than 200 fold)	B (B=less than 200 fold, but greater than 20 fold)	< 100		< 1000
CC(C)c1cnn2c(NCc3ccccc3-n3cccn3)nc(NC3CCNCC3)nc12 [Compound 40]		< 1000	> 10000	> 1000	100 to 1000	100 to 1000	A (A=greater than 200 fold)	B (B=less than 200 fold, but greater than 20 fold)	C (C=less than 20 fold)	< 100		< 1000
CC(C)c1cnn2c(NCc3ccccc3-n3cccn3)cc(N3CCC(N)CC3)nc12 [Compound 1]	1000 to 10000	< 1000	1000 to 10000	> 1000	> 1000	100 to 1000	B (B=less than 200 fold, but greater than 20 fold)	B (B=less than 200 fold, but greater than 20 fold)	C (C=less than 20 fold)	< 100		
